Measurements taken from article PMC3522743, “Wax Ester Synthesis is Required for Mycobacterium tuberculosis to Enter In Vitro Dormancy” (PLoS ONE, 2012).

Tests used:
FCR2 (Rv1543) = FCR2 (Rv1543) (Mycobacterium tuberculosis, UniProt P9WGS1)
FCR1 (Rv3391) = molecular target: T1, FCR1 (Rv3391) (Mycobacterium tuberculosis, UniProt O50417)
T1 construct: gene acrA1
T1 sequence (O50417 entry or part of it): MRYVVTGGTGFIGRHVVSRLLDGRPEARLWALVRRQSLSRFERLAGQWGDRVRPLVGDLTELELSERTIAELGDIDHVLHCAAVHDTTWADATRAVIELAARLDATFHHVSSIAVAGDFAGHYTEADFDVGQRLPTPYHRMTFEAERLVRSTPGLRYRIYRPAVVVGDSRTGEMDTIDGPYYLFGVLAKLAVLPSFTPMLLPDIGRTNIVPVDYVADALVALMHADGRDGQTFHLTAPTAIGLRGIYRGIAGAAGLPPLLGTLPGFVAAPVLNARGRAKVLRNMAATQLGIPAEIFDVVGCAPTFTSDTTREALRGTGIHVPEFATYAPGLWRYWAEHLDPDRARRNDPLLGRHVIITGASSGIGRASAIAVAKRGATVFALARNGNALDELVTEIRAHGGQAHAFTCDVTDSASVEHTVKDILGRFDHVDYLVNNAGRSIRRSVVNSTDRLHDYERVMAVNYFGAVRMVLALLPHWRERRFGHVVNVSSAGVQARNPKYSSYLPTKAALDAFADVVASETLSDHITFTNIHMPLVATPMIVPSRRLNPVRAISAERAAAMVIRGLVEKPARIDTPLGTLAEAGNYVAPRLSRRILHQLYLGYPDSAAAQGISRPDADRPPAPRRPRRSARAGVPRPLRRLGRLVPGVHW

Chain of FCR2 (Rv1543) (P9WGS1 whole entry): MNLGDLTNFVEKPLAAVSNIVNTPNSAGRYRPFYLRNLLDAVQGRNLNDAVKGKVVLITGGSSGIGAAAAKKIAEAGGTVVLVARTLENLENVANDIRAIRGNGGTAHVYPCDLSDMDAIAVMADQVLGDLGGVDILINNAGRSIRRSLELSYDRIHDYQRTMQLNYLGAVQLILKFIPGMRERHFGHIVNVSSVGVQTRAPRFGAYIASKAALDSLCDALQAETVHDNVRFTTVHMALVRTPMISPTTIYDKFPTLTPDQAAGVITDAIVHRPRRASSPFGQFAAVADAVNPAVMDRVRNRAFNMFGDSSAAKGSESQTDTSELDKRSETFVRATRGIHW

SMILES	14C product formation, TLC and scintillation counting, E. coli lysate (FCR2 (Rv1543))	14C product formation, TLC and scintillation counting, E. coli lysate (FCR1 (Rv3391))
NC(=O)C1=CN([C@@H]2O[C@H](COP(=O)(O)OP(=O)(O)OC[C@H]3O[C@@H](n4cnc5c(N)ncnc54)[C@H](OP(=O)(O)O)[C@@H]3O)[C@@H](O)[C@H]2O)C=CC1 [NADPH]	Both FCR1 and FCR2 exhibited strong preference for NADPH as a cofactor	Both FCR1 and FCR2 exhibited strong preference for NADPH as a cofactor
CCCCCCCC/C=C\CCCCCCCC(=O)SCCNC(=O)CCNC(=O)[C@H](O)C(C)(C)COP(=O)(O)OP(=O)(O)OC[C@H]1O[C@@H](n2cnc3c(N)ncnc32)[C@H](O)[C@@H]1OP(=O)(O)O [oleoyl-CoA]	Both of these proteins showed typical substrate saturation with oleoyl-CoA (Fig. 3C, G).	Both of these proteins showed typical substrate saturation with oleoyl-CoA (Fig. 3C, G).
